pKd: −log10 of the molar value. Entries after “also recorded” stand apart in the source; their conditions may differ.

We go through three substances from patent US20220135622A1, “ANTIBACTERIAL PEPTIDES AND METHODS OF USE” (priority 2019, published 2022).

One assay has as its system E. coli. Put plainly: Cell growth inhibition assay with or without EDTA. It counts as cell-based, Escherichia coli. Particulars: irrespective of the presence or absence of EDTA (0.5 mM). How it is done: (§1) Peptide sensitivity and MIC assays. Lyophilized peptides (Smartox Biotechnology, CPC Scientific. ABclonal) were solubilized to 10 mM in Tris buffer, pH 8, prior to making a 2-fold dilution series in MHBII cation adjusted broth with highest final assay concentration of 400-800 μM. Bacteria were grown to log phase and added to final OD600˜0.001. The final EDTA concentration was 0.5 mM for E. coli strains and 0.125 mM for USA300. The final volume of 10 μL/well in a 384 well black, clear bottom plate (Corning) was spun <1 min at <250×g and then incubated at 37° C. After 4 h, an equal volume (10 μL) of BacTiter-Glo™ (Promega) was added to each well and luminescence was read after 5 min on an EnVision plate reader (PerkinElmer). To measure the minimal inhibitory concentrations (MICs), bacteria from fresh overnight plates or log phase cultures were diluted with or without EDTA and peptides as described above to final OD600˜0.0002. Plates were incubated at 37° C. for 20 h before measuring OD600 with an EnVision plate reader.
It was reasoned that the relatively large molecular weight (>2 kDa) and limited α-helical propensity of the linear LABWT peptide (SEQ ID NO: 1) might limit its access to LPS in the bacterial OM. […]

A short description of assay [1]: Biolayer interferometry: captured biotinylated LAB peptides binding to phospholipids. Also noted: species or system E. coli. Particulars: above background. How it is done: (§2) Biolayer interferometry. Phospholipid (Avanti polar lipids) and KDO2-lipid A (US Biological Life Sciences) stock solutions were prepared by resuspension into 25 mM Tris pH 8, 100 mM NaCl, 0.05% LMNG buffer and solubilized overnight at 4° C. Lipid stocks were diluted prior to experiments into 25 mM Tris pH 8, 100 mM NaCl, 0.5 mg/mL BSA, 0.05% LMNG. All assays were performed at 25° C. in 25 mM Tris pH 8, 100 mM NaCl, 0.5 mg/mL BSA, 0.05% LMNG. Biotinylated-LAB peptides were loaded onto SA biosensors to a response of approximately 0.5 nm. Binding to phospholipids and KDO2-lipid A was measured at concentrations of 150, 100, 50, 25, and 10 μM with 300s association and dissociation steps. Assays were performed in triplicate on an Octet Red384 (ForteBio) and buffer and lipid signals were subtracted by using a biotin-blocked reference streptavidin (SA) biosensor. Dissociation constants for LABWT and LABWT+, interactions with KDO2-lipidA were estimated by plotting response values at equilibrium as a function of concentration and fit to a global specific binding with Hill slope model in Prism (Graphpad Software).
Based on the intriguing chemical characteristics of the LPS-PbgA interface, the possibility that a linear peptide derived from PbgA might selectively bind to LPS in vitro was considered. […]

The nature of assay [2]: Biolayer interferometry: captured biotinylated LAB peptides binding to LPS (KDO2-lipid A). How it is done: as §2
Based on the intriguing chemical characteristics of the LPS-PbgA interface, the possibility that a linear peptide derived from PbgA might selectively bind to LPS in vitro was considered. A peptide encompassing the lipid A-binding (LAB)-motif (209SYPMTARRFLEKHGLLD225; SEQ ID NO: 67) with an additional Gly-Ser-linker and biotin modification was generated and used in an interferometry-based assay. […] Two peptides intended to destabilize essential lipid A binding determinants were tested as controls.

The subject of a further assay is E. coli+FhuAΔC/Δ4L. Put plainly: Bacterial growth inhibition, E. coli+FhuAΔC/Δ4L. It counts as cell-based, Escherichia coli. As to the method: (§3) Bacterial growth conditions. LB or Mueller Hinton II cation-adjusted broth (MHB II, BBL 212322) was prepared according to manufacturer's instructions and supplemented with arabinose at 0.02% for overnight growth or at indicated concentrations in the description of the figures. Bacterial cultures were grown at 37° C. When appropriate, media was supplemented with kanamycin (50 μg/mL), carbenicillin (50 μg/mL), chloramphenicol (12.5 or 25 μg/mL), hygromycin (200 μg/mL), and/or gentamicin (10 μg/mL).
as §1, with “To measure the minimal inhibitory concentrations (MICs), bacteria from fresh overnight plates or log phase cultures were diluted with or without EDTA and peptides as described above to final OD600˜0.0002.” left out

In a further assay the test system is E. coli imp4213. Put plainly: Bacterial growth inhibition, E. coli imp4213. It counts as cell-based, Escherichia coli. As to the method:
as §3
as §1, with “To measure the minimal inhibitory concentrations (MICs), bacteria from fresh overnight plates or log phase cultures were diluted with or without EDTA and peptides as described above to final OD600˜0.0002.” left out

Another assay relates to wild-type E. coli strain. Put plainly: Bacterial growth inhibition, wild-type E. coli strain. It counts as cell-based, Escherichia coli. As to the method:
as §3
as §1, with “To measure the minimal inhibitory concentrations (MICs), bacteria from fresh overnight plates or log phase cultures were diluted with or without EDTA and peptides as described above to final OD600˜0.0002.” left out

Another assay concerns E. coli mcr-1. In kind it is cell-based, Escherichia coli. Particulars: Table 6. Summed up: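 OD600 after 20 h at 37° C gives the MIC. Cells at final OD600 ~0.0002 in cation-adjusted MHB II face a 2-fold peptide series up to 400-800 μM final, with EDTA at 0.5 mM (E. coli strains) or 0.125 mM (USA300).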
Another assay relates to E. coli BW25113. It counts as cell-based, Escherichia coli. Particulars: Table 6; E. coli K-12 wild-type parent BW25113. Summed up: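 For MIC, bacteria (final OD600 ~0.0002) were incubated with 2-fold peptide dilutions (top 400–800 μM) in cation-adjusted MHB II with or without EDTA, 20 h at 37 °C, read by OD600. EDTA was 0.5 mM for E. coli and 0.125 mM for USA300. The growth-inhibition assay used log-phase cells at OD600 ~0.001, 4 h at 37 °C, BacTiter-Glo luminescence.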

In the case of “GSSYPMTARRFLE (Ac-GSSYPMTARRFLE-NH2) [SEQ ID NO: 2]”, the “effect on bacterial cell growth” value with E. coli is “showed no effect on bacterial cell growth”. Moreover, the “binding to PLs” value in assay [1] is “Neither a peptide lacking the α7 helix (LABΔα7; SEQ ID NO: 2) nor a peptide containing the T213D mutation equivalent (LABT213D; SEQ ID NO: 3) showed detectable binding to LPS or PLs above background”. The “binding to LPS” value in assay [2] (interferometry, above background, listed as LABΔα7) is listed as “Neither a peptide lacking the α7 helix (LABΔα7; SEQ ID NO: 2) nor a peptide containing the T213D mutation equivalent (LABT213D; SEQ ID NO: 3) showed detectable binding to LPS or PLs above background; also recorded: failed to bind LPS in vitro”.
As for GSSYPMTARRFLEKHGLLD [SEQ ID NO: 1], the growth inhibition result in the assay on E. coli+FhuAΔC/Δ4L is listed as “significantly impacted the growth”; in the assay with E. coli imp4213, “significantly impacted the growth”; in the assay with wild-type E. coli strain, “failed to inhibit the growth”. Besides, in assay [2] (LPS (KDO2-lipid A), biotinylated peptide on SA biosensor, 25° C., estimated from equilibrium responses), the pKd is about 4.12. Also, in assay [2] (versus the major PLs found in E. coli), the “selective binding to LPS over PLs” value is given as “bound LPS selectively over the major PLs”.
Regarding Polymyxin B [reference compound], the “Polymyxin B MIC” value was found to be 12.5 µM with E. coli mcr-1 and 0.2 µM in the assay on E. coli BW25113.
